These results are taken from publication PMC7076358, “Absorption and Intestinal Metabolic Profile of Oleocanthal in Rats” (Pharmaceutics, 2020).

Read-outs that look alike come from different tables or passages of the source.

Series [1] has as its system Caco-2 cell monolayers. More on the design: method as in PMID 10745093. Conditions: differentiated Caco-2 cell monolayers; cited from earlier work.
On the set-up of series [2]: method as in PMID 15760043, PMID 9068926. Conditions: cited from earlier work.
The conditions of series [3]: source not stated; cited from earlier work.
Series [4] in a line: in situ single-pass intestinal perfusion with simultaneous luminal perfusate and mesenteric blood sampling. It is filed as in vivo, Sprague–Dawley rats.
Method: LEV was assayed at 3 mg/mL, according to its high dose strength, in 250 mL TM.
Single-pass intestinal perfusion was performed in anesthetized rats according to the method described by Brouwers et al. [15], with simultaneous sampling from the luminal perfusate and mesenteric blood.
Anaesthesia was induced by intraperitoneal injection of pentobarbital sodium (60 mg/kg BW). The rats were then placed on a homeothermic blanket to maintain the body temperature at 37 °C. First, under general anaesthesia, the left jugular vein was cannulated with a heparinised (50 IU/mL) 0.5 × 0.9 mm/20 G catheter (Cavafix® MT, Braun Medical S.A., Barcelona, Spain) for infusion of donor blood. Second, a midline abdominal incision was made to isolate approximately 10 cm of the ileum using the ileocecal junction as a point of reference. Two glass cannulas (o.d. 4 mm, i.d. 3 mm, Duran®, Vidrafoc, Barcelona, Spain) were inserted at the proximal and distal ends of the isolated segment. The segment was rinsed by injection TM to remove the content until the solution came out clear. Next, the inlet cannula was connected to polyethylene tubing (i.d. 3 mm), which aspirated the tested solution (OLC or LEV) using a peristaltic pump (Minipuls3, M312 model, Gilson, Le Bel, France). Finally, the mesenteric vein draining blood from the intestinal segment was cannulated by inserting approximately 1 cm of a catheter (BD Insyte-W 24GA 0.7 × 19 mm, Becton Dickinson, Sangüesa S.A., Cornellà de Llobregat, Spain). The cannula was secured with a knot and connected to a silicone tube (i.d. 0.64 mm; o.d. 1.19 mm, Freudenberg Medical Europe, VWR International Eurolab S.L., Llinars del Vallés, Spain) that allowed blood to flow into the heparinised tubes. Care was taken to handle the small intestine gently to maintain normal blood supply. […]
The experiments were carried out in a laboratory room with infrared light to avoid oxidation of OLC. […] At the end of the experiment, the animal was euthanised by injection of air into the jugular, and the length of the intestinal segment was measured. […]
On the set-up of series [5]: method as in PMID 11110859. Conditions: rat intestine perfused, cited from earlier work.

As usually defined, the logP is a log measure of how a compound divides between an organic and an aqueous phase. For orientation: Papp means a coefficient for how fast a substance crosses the barrier.

Consider `OCCc1ccc(O)c(O)c1` [hydroxytyrosol], for which the permeability in series [1] is 12.4 ± 0.9 × 10^−6 cm/s.

`C[C@H]1COc2c(N3CCN(C)CC3)c(F)cc3c(=O)c(C(=O)O)cn1c23` [LEV, levofloxacin]: in series [2], the oral bioavailability was roughly 100%.

Take `C/C=C(/C=O)[C@@H](CC=O)CC(=O)OCCc1ccc(O)cc1` [OLC, oleocanthal]: in series [3], the logP is listed as 1.15. Also, the Peff at 60 min in series [4] (Sprague-Dawley, pH 7, rat ileum, disappearance from lumen, OLC 0.1 mg/mL, LEV 3 mg/mL, flow 1 mL/min, mean ± SD, n = 4, normalised to 10-cm segment, read-out: Peff (effective permeability coefficient)) worked out at 22.3 ± 31.6 ×10⁻⁶ cm/s. Also, the Papp at 60 min in series [4] (Sprague-Dawley, rat, pH 7, rat ileum, appearance in mesenteric blood, OLC 0.1 mg/mL, LEV 3 mg/mL, mean ± SD, n = 4, normalised to 10-cm segment, read-out: Papp (apparent permeability coefficient)) worked out at 4.12 ± 2.33 ×10⁻⁶ cm/s. The absorption in series [4] (rat in situ intestinal perfusion, stated in conclusions) turned out to be 16%.

`C/C=C1/[C@H](O[C@@H]2O[C@H](CO)[C@@H](O)[C@H](O)[C@H]2O)OC=C(C(=O)OC)[C@H]1CC(=O)OCCc1ccc(O)c(O)c1` [oleuropein]: the intestinal permeability coefficient in series [5] (hypotonic conditions) was 5.92 ×10⁻⁶ cm/s; in series [5] (iso-osmotic conditions), 1.47 ×10⁻⁶ cm/s.
